Like-named read-outs stand apart in the source and are kept apart here.

The values that follow come from PMC10218254 (International Journal of Molecular Sciences, 2023).

For series [1], the target named is T1, SARS-CoV-2 PL^pro (Severe acute respiratory syndrome coronavirus 2, UniProt P0DTD1). The conditions noted are these: cited from earlier work.
In series [2] the target is T1, SARS-CoV-2 PL^pro. As to the kind of experiment: cell-based. The conditions noted are these: HEK293T cells; for EC50: 48 h.
The nature of series [3]: Cytotoxicity, cell counting kit-8 (CCK8) assay. The following applies: human, CC50, HEK293T cells. (In general: Tetrazolium assays rely on reduction of a dye to a coloured formazan, in cell work by metabolically active cells.)
For the next series, the system named is HEK293T cells. As to the kind of experiment: Cytotoxicity, cell counting kit-8 (CCK8) assay. The following applies: HEK293T cells, 24 h.
For series [4], the target named is T1, SARS-CoV-2 PL^pro. As to the kind of experiment: biochemical. The conditions noted are these: for IC50: 60 min incubation.
For series [5], the target named is T1, SARS-CoV-2 PL^pro. As to the kind of experiment: biochemical. The following applies: 50 nM protease; for Ki: read-out: Ki (binding affinity of initial reversible binding); for kinact: read-out: kinact (rate constant of covalent bond formation) (converted).
Series [6] addresses T1, SARS-CoV-2 PL^pro. As to the kind of experiment: biochemical. The conditions noted are these: Ub-AMC substrate, 60 min incubation.
The next series deals with MERS-CoV PL^pro (Middle East respiratory syndrome-related coronavirus, UniProt K9N7C7). As to the kind of experiment: biochemical.
The target of a further series is SARS-CoV PL^pro (Severe acute respiratory syndrome coronavirus, UniProt P0C6X7). As to the kind of experiment: biochemical.
Series [7] addresses T1, SARS-CoV-2 PL^pro. The format is binding. The following applies: 40 μM protease, 200 μM compound; for Tm of SARS-CoV-2 PLpro incubated with compound: apo protease 43.3 °C.

MERS-CoV PL^pro, sequence (K9N7C7 1552-1823 limits assumed): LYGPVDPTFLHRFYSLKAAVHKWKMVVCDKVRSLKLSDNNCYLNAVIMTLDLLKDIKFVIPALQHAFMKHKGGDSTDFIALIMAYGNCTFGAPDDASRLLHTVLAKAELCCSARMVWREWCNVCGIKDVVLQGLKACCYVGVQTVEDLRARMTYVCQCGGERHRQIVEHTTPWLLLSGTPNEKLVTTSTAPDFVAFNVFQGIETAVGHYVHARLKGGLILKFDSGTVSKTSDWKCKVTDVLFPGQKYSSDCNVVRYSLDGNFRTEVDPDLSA

Turning to `COC(=O)/C=C/CNC(=O)CNC(=O)[C@H](CN)NC(=O)[C@H](CCc1nc2ccccc2s1)NC(C)=O` [VIR250], the 50% inhibitory concentration (IC50) (usually the concentration that gives 50% inhibition) on SARS-CoV-2 PL^pro [1] (read-out: IC50) is roughly 50 µM.

Consider `COC(=O)/C=C/CNC(=O)CNC(=O)[C@H](CN)NC(=O)[C@H](CCc1ccc(O)cc1)NC(C)=O` [VIR251], for which the 50% inhibitory concentration (IC50) on SARS-CoV-2 PL^pro [1] is roughly 50 µM.

As to `COC(=O)/C=C/CNC(=O)CNC(=O)CNC(=O)C1CCN(C(C)c2cccc3ccccc23)CC1` (stereo not drawn) [compound 2, Methyl (E)-4-(2-(2-(1-(1-(Naphthalen-1-yl)ethyl)piperidine-4-carboxamido)acetamido)acetamido)but-2-enoate], on SARS-CoV-2 PL^pro [2], the “improvement in EC50 compared to GRL0617” value was ~ 4.4 fold and it took 3.61 µM to reach a half-maximal effect (EC50). Moreover, the CC50 – broadly, the concentration at which the toxic effect on the cells reaches its halfway point – at 24 h in series [3] was roughly 180 µM. Also, in the series with HEK293T cells, the CC50 is roughly 180 µM. The “change in inhibitory activities in the presence and absence of DTT” value on SARS-CoV-2 PL^pro [4] (4 mM DTT, varied concentrations) was “no apparent change”. At SARS-CoV-2 PL^pro [4] (RLRGG-AMC substrate), the “improvement in potency (IC50) compared to VIR251” value is recorded as “about 100 fold”, the “improvement in potency (IC50) compared to compound 1” value was roughly 5 fold, the “increase in potency (IC50) compared to positive control GRL0617” value is 2 fold and half-maximal inhibition (IC50) was put at 0.46 µM. At SARS-CoV-2 PL^pro [5], the inactivation efficiency (kinact/KI) (commonly the second-order rate constant of inactivation) is 160 M⁻¹ s⁻¹, the inhibitory constant (Ki) (commonly the equilibrium dissociation constant of an inhibitor or competing ligand from its target) was 5.32 µM and the kinact (commonly the maximal first-order rate at which the target is inactivated) is 0.00085 s⁻¹. The IC50 on SARS-CoV-2 PL^pro [6] stood at 0.46 µM. At MERS-CoV PL^pro, the IC50 is greater than 100 µM and the “inhibitory activity towards MERS-CoV PLpro” value is “basically ineffective”. On SARS-CoV PL^pro, this compound gave a 50% inhibitory concentration (IC50) of 0.39 µM. The “Tm of SARS-CoV-2 PLpro incubated with compound” value at SARS-CoV-2 PL^pro [7] stood at 68.0 °C.

In [3], `COC(=O)/C=C/C(=O)NNC(=O)CCc1ccccc1C(=O)NC(C)c1cccc2ccccc12` (stereo not drawn) [compound 3, reference compound] yielded a half-maximal cytotoxic concentration (CC50) at 24 h of 58.3 ± 22.1 µM. This compound displayed a half-maximal cytotoxic concentration (CC50) in the series on HEK293T cells of 58.3 µM.

In the case of `COC(=O)/C=C/C(=O)NNC(=O)CNC(=O)CNC(=O)C1CCN(C(C)c2cccc3ccccc23)CC1` (stereo not drawn) [compound 4, Methyl (E)-4-(2-((1-(1-(Naphthalen-1-yl)ethyl)piperidine-4-carbonyl)glycylglycyl)hydrazinyl)-4-oxobut-2-enoate], at SARS-CoV-2 PL^pro [2], the “inhibitory effect in cell-based protease assay” value was “hardly has an inhibitory effect” and the concentration giving a half-maximal response (EC50) (usually the concentration giving half of the maximal effect) was greater than 200 µM. Also, in [3], the CC50 at 24 h was greater than 200 µM. This compound also returned an IC50 at SARS-CoV-2 PL^pro [4] (RLRGG-AMC substrate) of 0.23 µM. In addition, the “inhibitory potency higher than compound 2” value on SARS-CoV-2 PL^pro [4] (enzymatic inhibition assay) is reported as ~ 1 fold. Moreover, on SARS-CoV-2 PL^pro [5], the inactivation efficiency (kinact/KI) was 265 M⁻¹ s⁻¹, the Ki came out at 4.65 µM and the inactivation rate constant (kinact) was 0.00123 s⁻¹. This compound also showed a concentration for half-maximal inhibition (IC50) against SARS-CoV-2 PL^pro [6] of 0.32 µM. At SARS-CoV-2 PL^pro [7], the “Tm increase compared to apo protease” value amounted to 15.1 °C.

GRL0617 [reference compound]: in the series on HEK293T cells, the CC50 was greater than 200 µM. At SARS-CoV-2 PL^pro [7], the “Tm of SARS-CoV-2 PLpro incubated with compound” value was 50.4 °C.
